Key:
SaOS-2 cells = assay: MTT cell viability assay on SaOS-2; details: SaOS-2, MTT, control = 100%, mean ± SD; for CV (%) after 24 h (cellular viability with respect to control): 24 h treatment; for CV (%) after 48 h (cellular viability with respect to control): 48 h treatment, 25 μM
recombinant human Src = recombinant human Src (Homo sapiens, UniProt P12931); assay: cell-free Src enzymatic assay; assay type: biochemical; details: calculated from ID50; triplicate, mean values; read-out: Ki toward recombinant human Src
recombinant human Src, sequence (P12931 whole entry): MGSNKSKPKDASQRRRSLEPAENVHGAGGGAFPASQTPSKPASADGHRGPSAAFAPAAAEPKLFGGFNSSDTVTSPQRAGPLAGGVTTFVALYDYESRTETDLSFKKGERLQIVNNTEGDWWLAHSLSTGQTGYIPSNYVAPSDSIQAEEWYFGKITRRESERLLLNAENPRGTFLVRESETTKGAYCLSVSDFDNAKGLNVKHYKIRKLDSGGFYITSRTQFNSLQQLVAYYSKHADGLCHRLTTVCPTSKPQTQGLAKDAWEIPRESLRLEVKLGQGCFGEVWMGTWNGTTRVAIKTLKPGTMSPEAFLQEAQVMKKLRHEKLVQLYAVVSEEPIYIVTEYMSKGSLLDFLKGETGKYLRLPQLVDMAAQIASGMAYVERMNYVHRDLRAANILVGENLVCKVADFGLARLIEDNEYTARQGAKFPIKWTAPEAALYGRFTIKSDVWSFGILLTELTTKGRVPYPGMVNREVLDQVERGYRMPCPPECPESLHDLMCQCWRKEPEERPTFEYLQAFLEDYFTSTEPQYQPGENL

SMILES | melting point [°C] | CV (%) after 24 h (cellular viability with respect to control) (SaOS-2 cells) [%] | CV (%) after 48 h (cellular viability with respect to control) (SaOS-2 cells) [%] | Ki (recombinant human Src) [nM]
CCSc1nc(NCCc2ccccc2)c2cnn(CC(Cl)c3ccccc3)c2n1 (centres unmarked) [S1-72] | 99 to 100 | 107.3 ± 3.5 | 22.2 ± 1.3 | –
Clc1cccc(Nc2ncnc3c2cnn3CC(Cl)c2ccccc2)c1 (centres unmarked) [S-17] | – | 104.1 ±0.4 | 101.3 ± 1.5 | –
CSc1nc(NCCc2cccc(F)c2)c2cnn(CC(Cl)c3ccccc3)c2n1 (centres unmarked) [SI-56] | – | 101.1 ± 1.1 | 100.8 ± 2.1 | –
CSc1nc(NCCc2ccc(Cl)cc2)c2cnn(CC(Cl)c3ccccc3)c2n1 (centres unmarked) [SI-57] | – | 85.2 ± 0.7 | 75.4 ± 1.3 | –
CSc1nc(NCCc2cccc(Cl)c2)c2cnn(CC(Cl)c3ccccc3)c2n1 (centres unmarked) [SI-58] | 122 to 123 | 80.6 ± 0.7 | 39.3 ± 2.0 | –
CSc1nc(NCCc2ccccc2Cl)c2cnn(CC(Cl)c3ccccc3)c2n1 (centres unmarked) [SI-59] | 99 to 100 | 102.9 ± 1.3 | 100.5 ± 0.5 | –
CSc1nc(NCCc2ccc(C)cc2)c2cnn(CC(Cl)c3ccccc3)c2n1 (centres unmarked) [SI-60] | 99 to 100 | 101.9 ± 1.9 | 96.3 ± 1.1 | –
COc1ccc(CCNc2nc(SC)nc3c2cnn3CC(Cl)c2ccccc2)cc1 (centres unmarked) [SI-61] | 60 to 61 | 101.0 ± 3.0 | 49.8 ± 2.1 | –
CSc1nc(NCc2ccccc2)c2cnn(CC(Cl)c3ccc(F)cc3)c2n1 (centres unmarked) [SI-65] | 152 to 153 | 62.7 ± 0.7 | 44.4 ± 2.5 | –
CSc1nc(NCc2ccccc2)c2cnn(CC(Cl)c3ccc(Cl)cc3)c2n1 (centres unmarked) [SI-70] | 130 to 131 | 52.2 ± 2.4 | 24.4 ± 2.5 | –
CSc1nc(NCCc2ccccc2)c2cnn(CC(Cl)c3ccc(Cl)cc3)c2n1 (centres unmarked) [SI-71] | 127 to 129 | 99.9 ± 0.9 | 89.4 ± 2.3 | –
CSc1nc(NCc2ccc(F)cc2)c2cnn(CC(Cl)c3ccccc3)c2n1 (centres unmarked) [SI-84] | 136 to 137 | 102.1 ± 1.4 | 99.2 ± 1.0 | –
CSc1nc(NCc2cccc(F)c2)c2cnn(CC(Cl)c3ccccc3)c2n1 (centres unmarked) [SI-85] | 113 to 114 | 106.2 ± 3.0 | 71.3 ± 2.1 | –
CSc1nc(NCc2ccccc2F)c2cnn(CC(Cl)c3ccccc3)c2n1 (centres unmarked) [SI-86] | – | 104.1 ± 1.3 | 99.7 ± 0.4 | –
CSc1nc(NCc2ccc(Cl)cc2)c2cnn(CC(Cl)c3ccccc3)c2n1 (centres unmarked) [SI-87] | 126 to 127 | 113.4 ± 1.5 | 54.9 ± 2.4 | –
CSc1nc(NCc2ccccc2Cl)c2cnn(CC(Cl)c3ccccc3)c2n1 (centres unmarked) [SI-88] | 158 to 159 | 101.7 ± 0.9 | 102.1 ± 1.2 | –
CSc1nc(Nc2cccc(F)c2)c2cnn(CC(Cl)c3ccccc3)c2n1 (centres unmarked) [SI-90] | – | 94.8 ± 2.7 | 84.3 ± 1.5 | –
CSc1nc(Nc2cccc(Br)c2)c2cnn(CC(Cl)c3ccccc3)c2n1 (centres unmarked) [SI-91] | – | 100.1 ± 1.1 | 84.7 ± 0.3 | 1800
CCSc1nc(Nc2cccc(Cl)c2)c2cnn(CC(Cl)c3ccccc3)c2n1 (centres unmarked) [SI-96] | – | 76.5 ± 1.9 | 44.3 ± 1.8 | 500
CCCSc1nc(Nc2cccc(Cl)c2)c2cnn(CC(Cl)c3ccccc3)c2n1 (centres unmarked) [SI-101] | – | 77.8 ± 3.0 | 6.4 ± 1.9 | –
CSc1nc(Nc2ccccc2)c2cnn(CC(Cl)c3ccccc3)c2n1 (centres unmarked) [SI-118] | – | 100.1 ± 1.2 | 94.4 ± 0.7 | –
CSc1nc(Nc2cccc(Br)c2)c2cnn(CC(Cl)c3ccc(F)cc3)c2n1 (centres unmarked) [SI-128] | – | 63.1 ± 1.1 | 55.4 ± 2.0 | –
Clc1cccc(Nc2nc(SC3CCCCC3)nc3c2cnn3CC(Cl)c2ccccc2)c1 (centres unmarked) [SI-153] | – | – | – | 700
